Like-named read-outs stand apart in the source and are kept apart here.
Assays:
MDA-MB-231 cells [1] = assay: MTT viability assay, MDA-MB-231; format: cell-based; conditions: Homo sapiens, read-out: EC50 ± SD MDA-MB-231
Description: (§1) To test the anti-cancer effect of the TBBi derivatives, we treated the MCF-7 and MDA-MB-231 cells with the newly synthesized esters and previously reported compounds [34, 57] at the concentration range of 3.125 to 200 µM for 24 h, 48 h and 72 h. Additionally, the range of concentrations was extended by additional lower concentrations in MCF-7 for compound 4 with the minimum concentration of 0.195 µM. […] The EC50 values, describing the half maximal effective concentration of each tested compound, were calculated and are summarized in Table 2. […] We observed that the EC50 values increase in both cell lines with the elongation of fatty acids chain length in the tested compounds, thus strongly correlating with the decrease of their solubility in biological media as characterized by logS parameter (Table 2). The second reason for the decreased biological activity of the longer-chain aliphatic esters might be attributed to their greater resistance toward intracellular hydrolysis, which directly influences the slower release of the active form of the corresponding CK2 inhibitors. […] However, none of the tested compounds, except for compound 5, decreased the viability of both cell lines in a time-dependent manner (Figure 4).
(§2) MCF-7 and MDA-MB-231 were cultured in high-glucose Dulbecco’s modified Eagle medium (DMEM, Lonza, Basel, Switzerland) supplemented with 10% fetal bovine serum (FBS, EuroClone, Siziano, Italy)), 2 mM L-glutamine, and antibiotics (100 U/mL penicillin, 100 µg/mL streptomycin) (Sigma-Aldrich Chemical Company (St. Louis, MO, USA). Cells were grown in 75-cm^2 cell culture flasks (Sarstedt, Nümbrecht, Germany) in a humidified atmosphere of CO2/air (5%/95%) at 37 °C. All the experiments were performed in exponentially growing cultures. Stock solutions of the test compounds were prepared in DMSO and stored in −80 °C for a maximum of one month. For the cytotoxicity studies, stock solutions of the tested compounds were diluted 200-fold with the proper culture medium to obtain the final concentrations.
(§3) After incubation with the tested compounds, an MTT test was performed as described previously. Optical densities were measured at 570 nm using BioTek microplate reader (Winooski, VT, USA). All measurements were carried out in a minimum of three biological replicates.

MCF-7 cells [2] = assay: Cell cycle progression by flow cytometry, MCF-7; format: cell-based, human; conditions: MCF-7, 72 h, compound at its EC50
[3] = target: CK2 holoenzyme (CK2 α2β2) (Homo sapiens, UniProt P68400); assay: Radiometric (P81 filter isotopic) kinase assay, CK2 holoenzyme; format: biochemical; conditions: read-out: Residual Activity of the Enzyme CK2 α2β2
MCF-7 cells [4] = assay: MTT viability assay, MCF-7; format: cell-based; conditions: Homo sapiens, read-out: EC50 ± SD MCF-7
Description: as §1, §2, §3

[5] = target: human CK2 catalytic subunit (CK2α) (Homo sapiens, UniProt P68400); assay: Radiometric (P81 filter isotopic) kinase assay, CK2 catalytic subunit; format: biochemical; conditions: read-out: Residual Activity of the Enzyme CK2α
MCF-7 cells [6] = assay: Annexin V-FITC/PI flow cytometry, MCF-7; format: cell-based, human; conditions: MCF-7, 72 h treatment, compound at its EC50
Description: Additionally, assaying annexin V-binding to phosphatidylserine by means of flow cytometry confirmed that derivatives 3c and 6a–c induced apoptosis in both cell lines (Figure 9, Figure S3).
MCF-7 cells were seeded in six-well plates at 1.5 × 10^5 cells/well. […] Then, the plates were incubated for 24 h or 72 h. After exposure to the examined compounds, the floating cells were collected, and monolayer cell culture was trypsinized. The cells were centrifugated at 200× g at 4 °C for 5 min, washed twice in cold phosphate-buffered saline (PBS), and subsequently suspended in binding buffer at 1 × 10^6 cells/mL. Subsequently, 100-μL aliquots of the cell suspension were labeled according to the kit manufacturer’s instructions. Briefly, annexin V-fluorescein isothiocyanate and propidium iodide (BD Biosciences, Pharmingen, San Diego, CA, USA) were added to the cell suspension, and the mixture was vortexed and then incubated for 15 min at RT in the dark. A cold binding buffer (900 μL) was then added and the cells were vortexed again and kept on ice. Flow cytometric measurements were performed within 1 h after labeling. Viable, necrotic, early, and late apoptotic cells were detected by flow cytometry using CyFlow Cube 8 (Sysmex, Norderstedt, Germany) flow cytometer.

PIM1 = PIM1 (Homo sapiens, UniProt P11309); assay: Radiometric (P81 filter isotopic) kinase assay, PIM1; format: biochemical; conditions: for Ki: calculated from IC50 by Cheng and Prusoff equation; for remaining activity at 5 µM / remaining activity at 10 µM: read-out: Residual Activity of the Enzyme PIM1
MDA-MB-231 cells [7] = assay: Cleaved PARP1 Western blot, MDA-MB-231; format: cell-based, human; conditions: MDA-MB-231, 24-h treatment, compound at its EC50, untreated cells = one relative unit
[8] = system: protein kinase CK2 in MDA-MB-231 cells; assay: Intracellular inhibition of CK2, Western blot of p-Ser529 p65 and p-Ser129 Akt1, MDA-MB-231; format: cell-based, human; conditions: MDA-MB-231, 24 h treatment, compound at its 72-h EC50, relative to untreated control
Text: (§4) We observed an inhibition of CK2 in both cell lines; however, the lower efficiency of CK2 inhibition was detected in MCF-7 considering the extent of Akt1 phosphorylation. The relative level of the phosphorylation of the tested proteins in MDA-MB-231 cells was in the range of 0.32 to 0.80 for p-Ser529 p65 and 0.41 to 0.73 for p-Ser129 Akt1, whereas in MCF-7 cells it was in the range of 0.33 to 0.78 for p-Ser529 p65 and 0.82 to 1.23 for p-Ser129 Akt1, respectively. The lowest phosphorylation levels of the tested proteins were detected in MDA-MB-231 cells for compound 6b with the relative level of 0.41 for Ser129 Akt1 as well as for compound 6c with the relative level of 0.32 for p-Ser529 p65. Among the tested proteins, the lowest extent of phosphorylation in MCF-7 cells was detected for 6b with the relative level of 0.33 for p-Ser529 p65, and for 6a with the relative level of 0.82 for Ser129 Akt1.
The MCF-7 cells growing exponentially were seeded at 4.8 × 10^5 cells in 6-cm-diameter plates. Subsequently, compounds were added in a final concentration of 0.5% DMSO. […] The protein concentration was determined using Bradford assay. […]
For densitometry, immunoblots were quantified using the Fiji distribution of the ImageJ 1.52a software (National Institutes of Health, Bethesda, MD, USA, and the University of Wisconsin, Madison, WI, USA). […]

[9] = set-up: method as in PMID 8876860, PMID 9760686; conditions: higher than the parent anti-herpesvirus agent; cited from earlier work
[10] = system: protein kinase CK2 in MCF-7 cells; assay: Intracellular inhibition of CK2, Western blot of p-Ser529 p65 and p-Ser129 Akt1, MCF-7; format: cell-based, human
Text: as §4
Considering an inefficient inhibition of CK2 in MCF-7, we evaluated an inhibition of CK2 in this cell line after 72 h. […] The relative levels were in the range of 0.17 to 0.8 for p-Ser529 p65 and 0.19 to 0.79 for p-Ser129 Akt1.
The MCF-7 cells growing exponentially were seeded at 4.8 × 10^5 cells in 6-cm-diameter plates. Subsequently, compounds were added in a final concentration of 0.5% DMSO. After incubation, floating cells were collected and cell monolayer was washed three times in ice-cold PBS and the cells were scraped, combined with floating cells and lysed in RIPA buffer consisting of 50 mM Tris-HCl (pH 7.4), 1% NP-40, 0.5% sodium deoxycholate, 0.1% SDS, 150 mM NaCl, 2 mM EDTA, 50 mM NaF, 0.2 mM sodium orthovanadate, and protease inhibitors cocktail. Subsequently, cells were sonicated (three times for 15 s), centrifuged at 20,000× g for 15 min at 4 °C, and the supernatants were collected and stored at −80 °C. The protein concentration was determined using Bradford assay. Then, supernatants were incubated with the Laemmli buffer for 5 min at 98 °C. Equal amounts of total protein (10 to 20 μg) were analyzed by SDS-PAGE, and subsequently, Western blotting was performed using primary antibodies in blocking buffer containing either 3% BSA (bovine serum albumin) or 3% milk in TBS-T (Tris-buffered saline (10 mM Tris-HCl (pH 8), 150 mM NaCl) containing 0.1% Tween 20 or 0.2% Triton X-100) for 1 h. After overnight incubation at 4 °C with the primary antibodies, the membranes were washed with TBS-T and probed with the respective secondary antibodies. The ECL substrate was used for detection and immunoblots were scanned using G Box Chemi (Syngene, Cambridge, UK) with GeneSys software (Syngene, Cambridge, UK) or were developed with the use of X-rays films. UV-irradiated Jurkat cells were used as a positive control in Western blot analysis of c-PARP1. After 2 h, one-minute UV-irradiated Jurkat leukemic T-cell line was lysed and subjected to analysis.
For densitometry, immunoblots were quantified using the Fiji distribution of the ImageJ 1.52a software (National Institutes of Health, Bethesda, MD, USA, and the University of Wisconsin, Madison, WI, USA). Phosphorylated protein densities were normalized to GAPDH densities, assuming 1 for untreated cells and then they were converted to a percent of the appropriate control.

[11] = MCF-7, 72 h treatment, compound at its EC50, relative to untreated control

Chain of PIM1 (P11309 whole entry, species assumed): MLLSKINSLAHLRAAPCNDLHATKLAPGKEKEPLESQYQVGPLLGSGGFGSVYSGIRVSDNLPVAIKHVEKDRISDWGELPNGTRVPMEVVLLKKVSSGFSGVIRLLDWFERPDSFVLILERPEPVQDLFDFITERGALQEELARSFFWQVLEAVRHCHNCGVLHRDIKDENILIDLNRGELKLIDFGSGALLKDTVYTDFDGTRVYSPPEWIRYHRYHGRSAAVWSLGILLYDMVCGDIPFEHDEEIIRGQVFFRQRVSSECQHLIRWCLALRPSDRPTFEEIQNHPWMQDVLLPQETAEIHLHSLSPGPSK
Chain of CK2 holoenzyme (CK2 α2β2) (P68400 whole entry): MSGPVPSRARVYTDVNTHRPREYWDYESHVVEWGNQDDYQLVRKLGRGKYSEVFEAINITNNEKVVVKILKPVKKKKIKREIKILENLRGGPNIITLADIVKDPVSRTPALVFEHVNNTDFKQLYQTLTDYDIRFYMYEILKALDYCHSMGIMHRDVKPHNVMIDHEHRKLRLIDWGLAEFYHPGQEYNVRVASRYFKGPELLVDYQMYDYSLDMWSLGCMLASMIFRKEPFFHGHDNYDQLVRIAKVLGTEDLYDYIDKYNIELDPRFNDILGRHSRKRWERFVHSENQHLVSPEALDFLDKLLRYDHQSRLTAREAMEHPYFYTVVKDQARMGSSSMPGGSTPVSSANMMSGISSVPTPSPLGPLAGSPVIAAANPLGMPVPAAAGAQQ
Chain of CK2 holoenzyme (CK2 α2β2) (P67870 whole entry partner): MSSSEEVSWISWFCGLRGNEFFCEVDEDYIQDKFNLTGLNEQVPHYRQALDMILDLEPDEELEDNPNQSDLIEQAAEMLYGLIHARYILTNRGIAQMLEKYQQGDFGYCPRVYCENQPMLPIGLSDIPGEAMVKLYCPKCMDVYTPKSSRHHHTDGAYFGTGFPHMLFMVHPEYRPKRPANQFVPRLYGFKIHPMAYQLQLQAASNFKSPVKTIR
Chain of human CK2 catalytic subunit (CK2α) (P68400 whole entry): as the sequence (P68400 whole entry) above

Compound | EC50 (MDA-MB-231 cells [1]; 24 h) | EC50 (MDA-MB-231 cells [1]; 48 h) | EC50 (MDA-MB-231 cells [1]; 72 h) | cells in G1 (MCF-7 cells [2]) | cells in G2M (MCF-7 cells [2]) | cells in S (MCF-7 cells [2]) | EC50 (MCF-7 cells [4]; MCF7, 24 h) | EC50 (MCF-7 cells [4]; MCF7, 48 h) | EC50 (MCF-7 cells [4]; MCF7, 72 h) | Ki (PIM1) | melting point | remaining activity at 5 µM ([3]; 5 µM compound) | remaining activity at 10 µM ([3]; 10 µM compound) | remaining activity at 5 µM ([5]; 5 µM compound) | remaining activity at 10 µM ([5]; 10 µM compound) | remaining activity at 5 µM (PIM1; 5 µM compound) | remaining activity at 10 µM (PIM1; 10 µM compound) | other results
Brc1c(Br)c(Br)c2[nH]cnc2c1Br [Compound 1, 4,5,6,7-tetrabromo-1H-benzimidazole, reference compound] | 51.9 ± 14.4 µM | 25.1 ± 2.04 µM | 24.9 ± 0.25 µM | 57.7% | 17.2% | 25.1% | 20.8 ± 1.49 µM | 18.8 ± 1.6 µM | 16.9 ± 1.36 µM | 0.27 µM |  |  |  |  |  |  |  | remaining activity at 5 µM [3]: 9.6 ± 2.6%; remaining activity at 10 µM [3]: 5 ± 1.2%; remaining activity at 5 µM [5]: 19.3 ± 0.2%; remaining activity at 10 µM [5]: 12.4 ± 0.1%; necrotic cells (of total cells) (MCF-7 cells [6]): 25%; remaining activity at 5 µM (PIM1): 11.2 ± 0.2%; remaining activity at 10 µM (PIM1): 5.7 ± 0.5%
CCCCCCCC(=O)OCCCn1c(C)nc2c(Br)c(Br)c(Br)c(Br)c21 [Compound 6c, 3-(4,5,6,7-Tetrabromo-2-methyl-1H-benzimidazol-1-yl)propyl octanoate] | 61.3 ± 2.23 µM | 29.8 ± 9.85 µM | 21.3 ± 2.24 µM | 58.9% | 13.4% | 27.7% | 25.6 ± 12.3 µM | 20.5 ± 2.92 µM | 14.8 ± 2.14 µM |  | 61 to 65 °C | 90.2 ± 4.7% | 80.8 ± 1.9% | 89.9 ± 5.2% | 84.3 ± 10.4% | 95.2 ± 9.4% | 79.8 ± 8.6% | relative level of c-PARP1 (MDA-MB-231 cells [7]): 7.14; relative level of p-Ser529 p65 [8]: 0.32
CC(=O)OCC(CCn1cnc2cnc(N)nc21)COC(C)=O [famciclovir] |  |  |  |  |  |  |  |  |  |  |  |  |  |  |  |  |  | bioavailability relative to parent penciclovir [9]: 15 fold
CCCC(=O)OCCCn1c(C)nc2c(Br)c(Br)c(Br)c(Br)c21 [Compound 6a, 3-(4,5,6,7-Tetrabromo-2-methyl-1H-benzimidazol-1-yl)propyl butanoate] | 52.2 ± 11.7 µM | 20.5 ± 1.97 µM | 16.9 ± 4.07 µM | 56.3% | 18.5% | 25.2% | 20.2 ± 1.74 µM | 18.1 ± 0.52 µM | 16.5 ± 1.13 µM | 1.94 ± 0.16 µM | 81 to 82 °C | 75.6 ± 5.9% | 49.6 ± 0.8% | 81.5 ± 8% | 68.4 ± 9.8% | 38.8 ± 3.1% | 19 ± 0.1% | relative level of p-Ser129 Akt1 ([10]; MCF-7, 24 h treatment, compound at its 72-h EC50, relative to untreated control): 0.82; relative level of p-Ser129 Akt1 [10, 11]: 0.30; relative level of p-Ser529 p65 [10, 11]: 0.19

From article PMC8230474, “Synthesis of Novel Acyl Derivatives of 3-(4,5,6,7-Tetrabromo-1H-benzimidazol-1-yl)propan-1-ols—Intracellular TBBi-Based CK2 Inhibitors with Proapoptotic Properties” (International Journal of Molecular Sciences, 2021)
